Values joined by “and” are separate entries in the source; they are usually repeats but may differ in a detail not shown here. Identical values can stand only once. “Also recorded” adds a separate entry of the source.
Tests used:
[1] = test system: BCL6-expressing Burkitt lymphoma cell lines; design: method as in PMID 16618762; conditions: cited from earlier work
Solubility = format: physicochemical; conditions: cambinol compared to GW4869
[2] = test system: Burkitt lymphoma xenografts; design: method as in PMID 16618762; conditions: mice, cited from earlier work
[3] = test system: rat primary hippocampal neurons; experiment: Hippocampal neuronal survival (Hoechst 33342); format: cell-based; conditions: for effect on TNF-α or IL-1β-induced neuron cell death (words): Hoechst 33342 staining
Experimental: All animal procedures were approved by the Johns Hopkins University Animal Care and Use Committee. Primary hippocampal neurons were prepared from day 18 decapitated embryos of Sprague-Dawley rats following previously described methods. Cells were seeded on polyethyleneimine (PEI)-coated slides in 12-well plates and cultured between 14–21 days. […] After 18 h, cells were stained with 50 μg/ml Hoeschst 33342 for 20 min and then fixed with 4% paraformaldehyde for 30 min. The number of living and apoptotic cells was determined by fluorescence microscopy. A minimum of 500 cells were counted per treatment condition. Results were normalized to control untreated cells and were representative of at least two independent experiments conducted in triplicate. Statistical evaluation of the data was done by Student’s t-test.

[4] = test system: rat primary hippocampal neurons; experiment: Dendrite length (MAP2 imaging); format: cell-based; conditions: for dendrite length, Mean: in µm (unit assumed)
Experimental: Quantification of neuronal morphology was done in primary hippocampal neurons plated in PEI-coated ultra-thin and optically clear flat bottom 96-well plates (Corning). […] Neurons were then fixed with 4% paraformaldehyde, and permeabilized with 0.1% Triton X-100 in phosphate-buffered saline (PBS-T) for 20 min at room temperature. Blocking was done for 1 h with 5% normal goat serum solution, then incubation with anti-MAP2 antibody (1:500, Sigma) was done, followed by three washes with PBS-T and 2 h incubation with Alexa 595 secondary antibody (1:500, Life Technologies). Dendrites were imaged with a 20X objective using a Zeiss Axio Observer Z1 microscope equipped with an Orca ER CCD camera (Hamamatsu Inc). A 6x6 image was obtained from each culture well, and a montage was created using Neurolucida imaging software (mbf Biosecience). The effects of the experimental treatments on dendrite length were determined and the results presented are the average of 5–6 individual experiments. Statistical significance was determined by one-way ANOVA analysis.

macrophages = conditions: cited from earlier work
human nSMase2 = molecular target: T1, human nSMase2 (Homo sapiens, UniProt Q9NY59); experiment: 14C-SM confirmatory direct activity assay; format: biochemical; design: Full length human nSMase2 cDNA with a C-terminal Flag tag; host or cells: HEK293, stably transfected; crude cell lysate used as enzyme
T1 sequence (Q9NY59 1-655): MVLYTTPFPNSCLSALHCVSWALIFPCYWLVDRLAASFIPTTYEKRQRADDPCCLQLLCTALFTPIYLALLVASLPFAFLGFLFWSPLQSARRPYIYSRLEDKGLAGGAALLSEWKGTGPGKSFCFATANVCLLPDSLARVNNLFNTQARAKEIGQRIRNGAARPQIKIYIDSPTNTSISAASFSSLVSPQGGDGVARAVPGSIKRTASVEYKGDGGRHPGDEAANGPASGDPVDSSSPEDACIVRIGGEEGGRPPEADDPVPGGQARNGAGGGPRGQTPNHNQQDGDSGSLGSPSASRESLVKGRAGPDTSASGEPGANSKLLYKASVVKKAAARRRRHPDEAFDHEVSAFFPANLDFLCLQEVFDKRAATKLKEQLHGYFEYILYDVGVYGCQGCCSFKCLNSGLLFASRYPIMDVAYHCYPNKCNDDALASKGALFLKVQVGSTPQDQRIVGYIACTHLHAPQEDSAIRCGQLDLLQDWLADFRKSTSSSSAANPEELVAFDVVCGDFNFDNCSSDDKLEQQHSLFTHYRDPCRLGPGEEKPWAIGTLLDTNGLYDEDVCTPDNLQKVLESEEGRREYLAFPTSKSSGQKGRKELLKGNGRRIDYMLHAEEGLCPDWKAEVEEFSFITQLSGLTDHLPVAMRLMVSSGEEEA
Experimental: This assay was dependent on the direct hydrolysis of ^14C-labeled SM (^14C N-methyl groups in the phosphorylcholine) by human nSMase2. Optimization of assay conditions was accomplished according to the methods of Barbone et al.. Briefly, bovine [N-methyl-^14C]-sphingomyelin (specific activity […], Perkin Elmer) and phosphatidylinositol (Avanti Polar Lipids) were evaporated to dryness under a stream of nitrogen and resuspended at an equimolar concentration of 0.1 mM in water with 0.5% Triton X-100 (Sigma). The solution was vortexed for 30 min and then sonicated for 30 min. Assay conditions were as follows: 50 μl total volume per reaction, consisting of 20 μM SM, reaction buffer (100 mM Tris-HCl pH 7.5, 80 mM MgCl2, 0.1% Triton X-100); 10 μl cell lysate containing recombinant human nSMase2 (0.5–1 μg protein/assay) and 5 μl of compound in reaction buffer containing 10% DMSO. After 1 h incubation at 37°C the reaction was terminated by the addition of 30 μl of water and 175 μl of chloroform/methanol (2:1, v:v), followed by vigorous vortexing. Tubes were centrifuged for 5 min at 10,000 xg at room temperature to separate the organic bottom phase containing labeled SM and the aqueous upper phase containing ^14C-labeled-phosphorylcholine. An aliquot (50 μl) of the upper phase was transferred to a vial with 10 ml of scintillant and counted for 2 min on a Beckman LS-6000IC scintillation counter. Enzyme activity was directly proportional to the disintegrations per min (dpm) resulting from the generation of ^14C-phosphorylcholine.

O=c1[nH]c(=S)[nH]c(-c2ccccc2)c1Cc1c(O)ccc2ccccc12 [Cambinol, cambinol]
apoptosis [1]: induced apoptosis | aqueous solubility (Solubility): significantly higher; also recorded: improved | tolerability ([2]; doses as high as 100 mg/kg intravenously): well tolerated | anti-cancer efficacy [2]: effective | neuron survival, Mean (normalized to control untreated cells) ([3]; 100 ng/ml IL1β 18 h, 0.1 µM compound): 77.25 | neuron survival, Mean (normalized to control untreated cells) ([3]; 100 ng/ml IL1β 18 h, 0.3 µM compound): 74.03 | neuron survival, Mean (normalized to control untreated cells) ([3]; 100 ng/ml IL1β 18 h, 1 µM compound): 84.51 | neuron survival, Mean (normalized to control untreated cells) ([3]; 100 ng/ml IL1β 18 h, 3 µM compound): 93.01 | neuron survival, Mean (normalized to control untreated cells) ([3]; 100 ng/ml IL1β 18 h, 10 µM compound): 93.58 | neuron survival, Mean (normalized to control untreated cells) ([3]; 100 ng/ml IL1β 18 h, 25 µM compound): 97.12 | neuron survival, Mean (normalized to control untreated cells) ([3]; 100 ng/ml TNFα 18 h, 0.1 µM compound): 78.25 | neuron survival, Mean (normalized to control untreated cells) ([3]; 100 ng/ml TNFα 18 h, 0.3 µM compound): 82.52 | neuron survival, Mean (normalized to control untreated cells) ([3]; 100 ng/ml TNFα 18 h, 1 µM compound): 86.26 | neuron survival, Mean (normalized to control untreated cells) ([3]; 100 ng/ml TNFα 18 h, 3 µM compound): 90.17 | neuron survival, Mean (normalized to control untreated cells) ([3]; 100 ng/ml TNFα 18 h, 10 µM compound): 91.48 | neuron survival, Mean (normalized to control untreated cells) ([3]; 100 ng/ml TNFα 18 h, 25 µM compound): 92.36 | effect on TNF-α or IL-1β-induced neuron cell death (words) [3]: decreased | effect on TNF-α or IL-1β-induced neuron cell death (words) ([3]; listed as cambinol): prevent; also recorded: inhibited; also recorded: protected | neuron survival, Mean (normalized to control untreated cells) ([3]; No IL1β, 25 µM compound): 91.21 | dendrite length, Mean ([4]; 100 ng/ml TNFα 18 h, 0.1 µM Cambinol): 9111.111 | dendrite length, Mean ([4]; 100 ng/ml TNFα 18 h, 0.3 µM Cambinol): 11450 | dendrite length, Mean ([4]; 100 ng/ml TNFα 18 h, 1 µM Cambinol): 13799 | dendrite length, Mean ([4]; 100 ng/ml TNFα 18 h, 3 µM Cambinol): 14262.5 | dendrite length, Mean ([4]; 100 ng/ml TNFα 18 h, 10 µM Cambinol): 18867 | dendrite length, Mean ([4]; 100 ng/ml TNFα 18 h, 30 µM Cambinol): 16000 | dendrite length, Mean ([4]; No TNFα, 30 µM Cambinol): 15151.25 | effect on TNFα-induced dendrite damage ([4]; decrease in dendritic length): prevented; also recorded: protected | TNF-α and IL-6 release (macrophages): effectively inhibited | %Inhibition (human nSMase2; Log [compound] -3.0): 92.0% and 91.0% | %Inhibition (human nSMase2; Log [compound] -3.47756): 99.0% and 86.0% | %Inhibition (human nSMase2; Log [compound] -4.0): 83.0% and 80.0% | %Inhibition (human nSMase2; Log [compound] -5.0): 56.0% and 57.0% | %Inhibition (human nSMase2; Log [compound] -5.47756): 46.0% and 47.0% | %Inhibition (human nSMase2; Log [compound] -6.0): 13.0% and 15.0% | %Inhibition (human nSMase2; Log [compound] -7.0): 0.0% and 10.0% | %Inhibition (human nSMase2; Log [compound] -7.47756): 8.0% and 10.0% | %Inhibition (human nSMase2; Log [compound] -8.0): 8.0% and 11.0% | %Inhibition (human nSMase2; Log [compound] -8.47756): 14.0% and 7.0% | %Inhibition (human nSMase2; Log [compound] -9.0): 6.0% and 4.0% | %Inhibition (human nSMase2; Log [compound] -9.47756): 12.0% and 18.0* % | inhibition at 10 µM (human nSMase2; at 10 μM): > 80%

Source: article PMC4444023 (PLoS ONE, 2015)
